Literature values in patent publication US9370540B2, “K2 composition and the preparation method and use of the same” (SINPHAR PHARMACEUTICAL CO., LTD., priority 2014, dated 2016).

Tested on: A549 cells
Details: from Molecular Carcinogenesis papers

For C=C(CC[C@@H](C(=O)O)[C@H]1[C@H](O)C[C@@]2(C)C3=CC[C@H]4C(C)(C)C(=O)CC[C@]4(C)C3=CC[C@]12C)C(C)C [polyporenic acid C], which “IC50, inhibiting the growth of lung cancer cells” value is on record?
Its value is “about 15 μg/ml”.
